Test results: PubChem BioAssay (NCI)
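These data come from cells grown in 96-well plates and exposed to compound for 48 hours at five concentrations. TGI denotes the concentration required for complete inhibition of growth.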

Assays:
Test in all cases: DTP human tumour cell line panel, 48 h
UACC-62 melanoma = system: UACC-62 melanoma
SF-539 CNS = system: SF-539 CNS
HCT-116 colon = system: HCT-116 colon
NCI-H23 lung = system: NCI-H23 lung
MCF7 breast = system: MCF7 breast
SF-295 CNS = system: SF-295 CNS
NCI-H460 lung = system: NCI-H460 lung
SW-620 colon = system: SW-620 colon
HS 578T breast = system: HS 578T breast

SMILES	TGI (UACC-62 melanoma) [µM]	TGI (SF-539 CNS) [µM]	TGI (HCT-116 colon) [µM]	TGI (NCI-H23 lung) [µM]	TGI (MCF7 breast) [µM]	TGI (SF-295 CNS) [µM]	TGI (NCI-H460 lung) [µM]	TGI (SW-620 colon) [µM]	TGI (HS 578T breast) [µM]
COC(=O)C1=C(C(=O)OC)C2CCC1CC2=O (configuration not stated)	> 100	> 100	> 100	> 100	> 100	> 100	> 100	> 100	
O=C1CSC2(CC(/C=C/c3ccccc3[N+](=O)[O-])=NN2c2cccc(S(=O)(=O)O)c2)N1c1nc2ccccc2s1 (configuration not stated)	29	> 75	> 75	34.4	26.4		52.7	> 75	> 75
c1ccc2c(CCNC3=NCCO3)cccc2c1	> 10	> 10	> 10	> 10	> 10	> 10	> 10	> 10	> 10
COc1ccc(OC)c2c1-c1nnnn1CCC2(C)C	> 100	> 100	> 100	> 100	> 100	> 100	> 100	> 100	> 100
C=CCOC1=C(OC(C)=O)C(C2COC(C)(C)O2)OC1=O (configuration not stated)	68.2	> 100	36	35	32.8	> 100	61.4	32.7	> 100
Oc1ccccc1/C=N/N1C(=S)N(c2ccccc2)C(=Nc2ccccc2)C1=Nc1ccccc1	29.3	17.9	26.5	24.9	> 100	23.2	32.4	> 54.1	37.7
COc1ccc2oc(=O)c(-c3nc4ccccc4s3)cc2c1	> 100	13.7	37.6	> 63.9		> 57.3	> 100	> 100	> 95.8
CCN(CC)C(=O)N1CN(c2ccccc2)C2(CCN(CCCC3(c4ccc(F)cc4)OCCO3)CC2)C1=O	34.9	32	23.9	36.6	19.9	41.3		40.4	37.4
Cc1cn(C2CC(/[N+]([O-])=N\Nc3ccc([N+](=O)[O-])cc3)C(CO)O2)c(=O)[nH]c1=O (configuration not stated)	> 100	> 100	> 100	> 100		> 100	> 100	> 100	> 100
N#C[C@H](c1nc2ccccc2[nH]1)c1nc2ccccc2nc1Cl	> 38.8	> 100	24.2	> 54.3	> 100	> 100	> 53.8	29.5	> 100
O=C1N(c2ccccc2)N=C2c3ccncc3C3=NN(c4ccccc4)C(=O)C123 (configuration not stated)	> 57.1	> 46.8	> 100	> 100	> 100	> 100	> 100	> 100	> 100
C=C(C)[C@H]1C=C[C@@H](OC(C)=O)[C@@]2(COC(C)=O)[C@H](OC(=O)CCC)[C@H]3[C@@H](OC(C)=O)[C@@H](C)C[C@]3(O)C(=O)[C@@](C)(OC(C)=O)[C@H]12	> 100		> 100	> 100	> 100		> 100	> 100	> 100
COc1ccc(/C=C2\NC(=S)N(CN3CCOCC3)C2=O)cc1	> 100		> 100	> 100	> 100	> 100		> 100	> 100
O=C1C=C(NCCc2ccc(O)cc2)C(=O)C=C1NCCc1ccc(O)cc1	> 100		> 100	> 100	> 100	> 100	> 100	> 100	> 100
ClC1(Cl)C2CCOC21n1cnc2ccccc21 (configuration not stated)	> 100	> 100	> 100	> 100	> 100	> 100		> 100	> 100
CC(C)N=C(NC#N)NS(=O)(=O)c1cnccc1NC1CCCCCCC1	> 100		> 100	> 100	> 100	> 100		> 100	> 100
Nc1[nH]nc2c1Cc1c(n(Cc3ccc(Cl)cc3)c3ccccc13)C(=O)N2	> 100	29.9	21.8	23.9	26.9	35.9	27.3	> 100	40.2
C[C@H](N)C(=O)Nc1ccc(-c2nc3ccccc3s2)cc1Cl	31.1		24.5	39.2		33.9	26.2	29.4	49.7
COC(=O)c1cc(OCc2cc(OCc3ccc(Br)cc3)cc(OCc3ccc(Br)cc3)c2)cc(OCc2cc(OCc3ccc(Br)cc3)cc(OCc3ccc(Br)cc3)c2)c1	> 100	> 100	> 100	> 100	> 100	> 100	> 100		
[B]C(=O)NC(CC(C)C)C(=O)NC1c2ccsc2C(=O)C1O (configuration not stated) (tested in a mixture with another compound)	> 100	> 100	> 100	> 100	> 100	> 100	> 100	> 100	> 100
COc1ccc(/C=C2/C(=O)C(c3ccccc3)N(c3ccccc3)C2=O)cc1OC (configuration not stated)	> 10	> 10	> 10	> 10	> 10	> 10	> 10	> 10	> 10
COc1ccc(/C=C/C(=O)N[C@@H]2C(=O)N3[C@@H]2SC(C)(C)[C@@H]3C(=O)O)cc1OC	> 100	> 100	> 100	> 100	> 100	> 100	> 100	> 100	> 100
O=c1oc2ccc([N+](=O)[O-])cc2cc1-c1csc(-c2ccccc2)n1	> 100	> 100	> 100		> 100	> 100	> 100	> 100	> 100
CCN(CC)C(=O)CCNC(C)Cc1c[nH]c2ccccc12 (configuration not stated)	> 100	> 100	> 100	> 100		> 100	> 100	> 100	> 100
